Laboratory results: patent US20220289691A1, “5-AMINO-SUBSTITUTED PYRAZOLES AND TRIAZOLES AS PEST CONTROL AGENTS” (Bayer Aktiengesellschaft, priority 2019, published 2022)
Read-outs that look alike come from different tables or passages of the source.

Columns and labels:
Type in all cases: in vivo
Spodoptera frugiperda = Spodoptera frugiperda spray test; conditions: foliar, 168 h, maize leaf discs, after 7 days, read-out: efficacy (caterpillars killed)
Experimental: Spodoptera frugiperda—Spray Test Solvent: 78.0 parts by weight of acetone • • 1.5 parts by weight of dimethylformamide Emulsifier: alkylaryl polyglycol ether
(§1) To produce a suitable active compound formulation, 1 part by weight of active compound is dissolved using the stated parts by weight of solvent and made up with water containing an emulsifier concentration of 1000 ppm until the desired concentration is attained. To produce further test concentrations, the formulation is diluted with emulsifier-containing water.
Leaf discs of maize (Zea mays) are sprayed with an active compound formulation of the desired concentration and, after drying, populated with caterpillars of the fall armyworm (Spodoptera frugiperda).
After 7 days, the efficacy in % is determined. 100% means that all the caterpillars have been killed; 0% means that no caterpillar has been killed.

Diabrotica balteata = Diabrotica balteata spray test; conditions: 168 h, read-out: efficacy (wheat plant growth); for pest or weed control at 500 g/ha: 500 g/ha (=160 μg/cavity)
Experimental: Diabrotica balteata—Spray Test Solvent: 78 parts by weight of acetone • • 1.5 parts by weight of dimethylformamide Emulsifier: alkylaryl polyglycol ether
as §1
Pre-swollen wheat grains (Triticum aestivum) are incubated in a multiwell plate filled with agar and a little water for one day (5 seed grains per cavity). The germinated wheat grains are sprayed with an active compound formulation of the desired concentration. Subsequently, each cavity is infected with 10-20 beetle larvae of Diabrotica balteata.
After 7 days, the efficacy in % is determined. 100% means that all wheat plants have grown as in the untreated, uninfected control; 0% means that no wheat plant has grown.

Meloidogyne incognita = Meloidogyne incognita test; conditions: 336 h, lettuce, after 14 days, read-out: nematicidal efficacy (formation of galls)
Experimental: Meloidogyne incognita Test Solvent: 125.0 parts by weight of acetone
To produce a suitable active compound formulation, 1 part by weight of active compound is mixed with the stated amount of solvent and the concentrate is diluted to the desired concentration with water.
Vessels are filled with sand, active compound solution, an egg/larvae suspension of the southern root-knot nematode (Meloidogyne incognita) and lettuce seeds. The lettuce seeds germinate and the plants develop. The galls develop on the roots.
After 14 days, the nematicidal efficacy in % is determined by the formation of galls. 100% means that no galls were found; 0% means that the number of galls on the treated plants corresponds to the untreated control.

Ctenocephalides felis = Ctenocephalides felis oral test; conditions: 48 h, 100 ppm in citrated cattle blood, adult cat fleas, after 2 days, read-out: efficacy (kill)
Experimental: Ctenocephalides felis—Oral Test
Solvent: Dimethyl Sulfoxide
To produce a suitable active compound formulation, 10 mg of active compound are mixed with 0.5 ml of dimethyl sulfoxide. Dilution with citrated cattle blood gives the desired concentration.
About 20 unfed adult cat fleas (Ctenocephalides felis) are placed into a chamber which is closed at the top and bottom with gauze. A metal cylinder whose bottom end is closed with parafilm is placed onto the chamber. The cylinder contains the blood/active compound formulation, which can be imbibed by the fleas through the parafilm membrane.
After 2 days, the kill in % is determined. 100% means that all of the fleas have been killed; 0% means that none of the fleas have been killed.

Phaedon cochleariae = Phaedon cochleariae spray test; conditions: foliar, 168 h, Chinese cabbage leaf discs, after 7 days, read-out: efficacy (beetle larvae killed)
Experimental: Phaedon cochleariae—Spray Test Solvent: 78.0 parts by weight of acetone • • 1.5 parts by weight of dimethylformamide Emulsifier: alkylaryl polyglycol ether
as §1
Discs of Chinese cabbage leaves (Brassica pekinensis) are sprayed with an active compound formulation of the desired concentration and, after drying, populated with larvae of the mustard beetle (Phaedon cochleariae).
After 7 days, the efficacy in % is determined. 100% means that all the beetle larvae have been killed; 0% means that no beetle larvae have been killed.

[1] = 100 g/ha (=32 μg/cavity), beetle larvae on wheat, after 7 days
[2] = beetle larvae on wheat, after 7 days

| Compound | pest or weed control at 100 g/ha (Spodoptera frugiperda) | pest or weed control at 100 g/ha (Diabrotica balteata; [1]) | further results |
| --- | --- | --- | --- |
| CC(C)c1ccccc1N1C(=O)CSC1=NN=Cc1ccc(-c2nc(N)n(-c3ccc(OC(F)(F)F)cc3)n2)cc1 [Compound I-056] | 100% | 100% | pest or weed control at 500 g/ha (Diabrotica balteata; [2]): 100%; pest or weed control at 20 ppm (Meloidogyne incognita): 90% |
| CNc1nc(-c2cc(F)c(C=NN=C3SCC(=O)N3c3ccccc3C(C)C)cc2F)nn1-c1ccc(OC(F)(F)F)cc1 [Compound I-111] | 100% | 100% | pest or weed control at 20 ppm (Meloidogyne incognita): 100% |
| CCC(=O)Nc1nc(-c2ccc(C(C)=NNC(=S)Nc3ccccc3C(C)C)cc2)nn1-c1ccc(OC(F)(F)F)cc1 [Compound I-016] | 100% |  | pest or weed control at 100 ppm (Ctenocephalides felis): 95%; pest or weed control at 100 g/ha (Phaedon cochleariae): 100% |
| CC(C)c1ccccc1NC(=S)NN=Cc1ccc(-c2nc(NC(=O)C3CC3)n(-c3ccc(OC(F)(F)F)cc3)n2)cc1 [Compound I-013] | 100% |  | pest or weed control at 100 ppm (Ctenocephalides felis): 100%; pest or weed control at 100 g/ha (Phaedon cochleariae): 100% |
| CCC(=O)Nc1nc(-c2ccc(C=NNC(=S)Nc3ccccc3C(C)C)cc2)nn1-c1ccc(OC(F)(F)F)cc1 [Compound I-012] | 100% |  | pest or weed control at 100 g/ha (Phaedon cochleariae): 100% |
| CO[C@@H]1[C@@H](OC)[C@H](C)O[C@@H](OC(=O)Nc2ccc(-c3nc(NC(=O)C4CC4)n(-c4ccc(OC(F)(F)C(F)(F)F)cc4)n3)cc2)[C@@H]1OC [Compound I-004] |  |  | pest or weed control at 500 g/ha (Spodoptera frugiperda; 500 g/ha): 83%; pest or weed control at 100 g/ha (Phaedon cochleariae): 100%; pest or weed control at 500 g/ha (Phaedon cochleariae; 500 g/ha): 100% |
| CNc1nc(-c2ccc(C=NNC(=S)Nc3ccccc3C(C)C)c(F)c2)nn1-c1ccc(OC(F)(F)F)cc1 [Compound I-104] | 100% | 100% | pest or weed control at 20 ppm (Meloidogyne incognita): 90% |
| CC(=O)Nc1nc(-c2ccc(C=NNC(=S)Nc3ccccc3C)cc2)nn1-c1ccc(OC(F)(F)F)cc1 [Compound I-010] | 100% |  | pest or weed control at 100 ppm (Ctenocephalides felis): 100%; pest or weed control at 100 g/ha (Phaedon cochleariae): 100% |
| CCNc1nc(-c2ccc(C=NN=C3SCC(=O)N3c3ccccc3C(C)C)cc2)nn1-c1ccc(OC(F)(F)F)cc1 [Compound I-047] |  |  | pest or weed control at 20 ppm (Meloidogyne incognita): 90% |
| CC(=O)Nc1nc(-c2ccc(C(C)=NNC(=S)Nc3ccccc3C)cc2)nn1-c1ccc(OC(F)(F)F)cc1 [Compound I-014] | 100% |  | pest or weed control at 100 ppm (Ctenocephalides felis): 80%; pest or weed control at 100 g/ha (Phaedon cochleariae): 100% |
| CC(C)Nc1nc(-c2ccc(C=NNC(=S)Nc3ccccc3C(C)C)cc2)nn1-c1ccc(OC(F)(F)F)cc1 [Compound I-052] | 100% | 100% | pest or weed control at 20 ppm (Meloidogyne incognita): 100% |
| CC(C)Nc1nc(-c2ccc(C=NN=C3SCC(=O)N3c3ccccc3C(C)C)cc2)nn1-c1ccc(OC(F)(F)F)cc1 [Compound I-048] |  |  | pest or weed control at 20 ppm (Meloidogyne incognita): 90% |
| CC(C)Nc1nc(-c2ccc(NC(=O)N=C3SCC(=O)N3c3ccccc3C(C)C)cc2)nn1-c1ccc(OC(F)(F)F)cc1 [Compound I-043] | 100% | 100% | pest or weed control at 500 g/ha (Diabrotica balteata; [2]): 100% |
| CNc1nc(-c2ccc(C=NN=C3SC(C)C(=O)N3c3ccccc3C(C)C)cc2)nn1-c1ccc(OC(F)(F)F)cc1 (centres unmarked) [Compound I-098] | 100% | 100% |  |
| CCOC(=O)Nc1nc(-c2ccc(NC(=O)N=C3SCC(=O)N3c3ccccc3C(C)C)cc2)nn1-c1ccc(OC(F)(F)F)cc1 [Compound I-116] | 100% |  | pest or weed control at 100 g/ha (Diabrotica balteata; in Triticum aestivum): 100% |
| CC(C)c1ccccc1N1C(=O)CSC1=NC(=O)Nc1ccc(-c2nc(N)n(-c3ccc(OC(F)(F)F)cc3)n2)cc1 [Compound I-025] | 100% |  | pest or weed control at 125 g/ha (Diabrotica balteata; 125 g/ha (=40 μg/cavity), beetle larvae on wheat, after 7 days): 100%; pest or weed control at 500 g/ha (Diabrotica balteata; [2]): 100% |

| Compound | pest or weed control at 100 g/ha (Spodoptera frugiperda) | pest or weed control at 100 g/ha (Diabrotica balteata; [1]) | further results |
| --- | --- | --- | --- |
| CC(C)c1ccccc1N1C(=O)CSC1=NN=Cc1ccc(-c2nc(NC3CC3)n(-c3ccc(OC(F)(F)F)cc3)n2)cc1 [Compound I-058] | 100% | 100% | pest or weed control at 500 g/ha (Diabrotica balteata; [2]): 100% |
| CNc1nc(-c2ccc(C=NN=C3SCC(=O)CN3c3ccccc3C(C)C)cc2)nn1-c1ccc(OC(F)(F)F)cc1 [Compound I-103] | 100% | 100% |  |
| CNc1nc(-c2ccc(C=NN3CCCSC3=Nc3ccccc3C(C)C)cc2)nn1-c1ccc(OC(F)(F)F)cc1 [Compound I-102] | 100% | 100% |  |
| CNc1nc(-c2ccc(C=NN=C3SCCCN3c3ccccc3C(C)C)cc2)nn1-c1ccc(OC(F)(F)C(F)(F)F)cc1 [Compound I-126, 3-[4-({[3-(2-isopropylphenyl)-1,3-thiazinan-2-yliden]hydrazono}methyl)phenyl]-N-methyl-1-[4-(pentafluoroethoxy)phenyl]-1H-1,2,4-triazol-5-amine] | 100% | 100% |  |
| CNc1nc(-c2ccc(C=NN=C3SCC(=O)N3c3ccccc3C(C)C)cc2Cl)nn1-c1ccc(OC(F)(F)F)cc1 [Compound I-112] | 100% | 100% |  |
| CC(C)c1ccccc1NC(=S)NN=Cc1ccc(-c2nc(NC3CSC3)n(-c3ccc(OC(F)(F)C(F)(F)F)cc3)n2)cc1 [Compound I-100] | 100% | 100% |  |
| CC(=O)Nc1nc(-c2ccc(C(C)=NNC(=S)Nc3c(C)cccc3C)cc2)nn1-c1ccc(OC(F)(F)F)cc1 [Compound I-015] | 100% |  | pest or weed control at 100 ppm (Ctenocephalides felis): 100%; pest or weed control at 100 g/ha (Phaedon cochleariae): 83% |
| CC(C)c1ccccc1N1C(=O)CSC1=NN=Cc1ccc(-c2nc(NC3CCOCC3)n(-c3ccc(OC(F)(F)F)cc3)n2)cc1 [Compound I-087] | 100% | 100% |  |
| CC(C)c1ccccc1N1C(=O)CSC1=NC(=O)Nc1ccc(-c2nc(N)n(-c3ccc(OC(F)(F)C(F)(F)F)cc3)n2)cc1 [Compound I-055] | 100% | 80% | pest or weed control at 500 g/ha (Diabrotica balteata; [2]): 100% |
| CC(C)c1ccccc1N1C(=O)CSC1=NC(=O)Nc1ccc(-c2nc(NC(=O)C3CC3)n(-c3ccc(OC(F)(F)F)cc3)n2)cc1 [Compound I-035] | 100% | 80% | pest or weed control at 500 g/ha (Diabrotica balteata; [2]): 100% |
| CCC(=O)Nc1nc(-c2ccc(NC(=O)N=C3SCC(=O)N3c3ccccc3C(C)C)cc2)nn1-c1ccc(OC(F)(F)F)cc1 [Compound I-036] | 100% | 80% | pest or weed control at 500 g/ha (Diabrotica balteata; [2]): 100% |
| CC(C)c1ccccc1NC(=S)NN=Cc1ccc(-c2nc(NCCS(C)(=O)=O)n(-c3ccc(OC(F)(F)F)cc3)n2)cc1 [Compound I-093] | 100% | 100% |  |
| CC(=O)Nc1nc(-c2ccc(C=NNC(=S)Nc3ccccc3C(C)C)cc2)nn1-c1ccc(OC(F)(F)C(F)(F)F)cc1 [Compound I-096] | 100% | 100% |  |
| CNC(=O)Nc1nc(-c2ccc(NC(=O)N=C3SCC(=O)N3c3ccccc3C(C)C)cc2)nn1-c1ccc(OC(F)(F)F)cc1 [Compound I-030] | 100% |  | pest or weed control at 500 g/ha (Diabrotica balteata; [2]): 100% |
| CNc1nc(-c2c(F)cc(C=NN=C3SCC(=O)N3c3ccccc3C(C)C)cc2F)nn1-c1ccc(OC(F)(F)F)cc1 [Compound I-122] | 100% | 100% |  |
